For assay [1], the target named is CD14 on spleen adherent cells of DBA/2 mice (mouse (cells from DBA/2 mice)) (UniProt P10810). The assay can be described thus: cell-based or functional assay.
The next assay deals with mouse spleen cells. The assay can be described thus: Cytokine production by mouse spleen cells with LPS and Hb. The assay is classed as cell-based, C57BL/6 mice. The conditions noted are these: murine spleen cells, LPS 200 ng/ml. Here is the method:
Spleen cells were pooled from 3 C57BL/6 donors (8-week male). Cells were incubated in triplicate in 2 ml medium (with 10% fetal calf serum and 200 ng/ml LPS) at a concentration of 1×10^6/ml. Medium contained in addition adult or fetal (sheep) hemoglobin at the various concentrations shown. Supernatants were harvested 24 hrs later to assay in triplicate for TNFα by ELISA. […] Control cultures (no LPS, LPS only, or fetal/adult Hb only) produced levels <50 ng/ml, <70 ng/ml or <50 ng/ml respectively.
Spleen cells were pooled from 3 C57BL/6 donors (8-week male). Cells were incubated in triplicate in 2 ml medium (with 10% fetal calf serum and 200 ng/ml LPS) at a concentration of 1×10^6/ml. Medium contained in addition adult or fetal (sheep) hemoglobin at the various concentrations shown. Supernatants were harvested 24 hrs later to assay for IL-6 in triplicate by ELISA. […] Control cultures (no LPS, LPS only, or fetal/adult Hb only) produced levels <100 ng/ml, <120 ng/ml or <100 ng/ml respectively.
In this experiment the cloned γ- and β-chain of sheep Hb were assayed as CHO extracts (20 μg/ml) together with LPS (100 ng/ml) to stimulate murine spleen cells in vitro for the production of TNFα (detection at 24 hr by ELISA) […]

In assay [2] the test system is S-form LPS, Re-LPS, Lipid A. Nature of the assay: LPS/Lipid A-specific adsorption assay. Format: binding. Here is the method:
In order to identify the LPS or Lipid A-interacting protein(s) in CLP1b a LPS/Lipid A-specific adsorption assay was developed. In this screening system polyvinylchloride 96-well microtiter plates (Becton Dickinson) were coated for 14 h at 4° C. with S-form LPS from Salmonella enterica sv. Minnesota 188233, Re-LPS from E. coli F515 or a Lipid A preparation derived from the E. coli strain solubilized as triethylamine (TEA) salts in LAL reagent water (BioWhittaker) at concentrations of 5 μg/ml or 2 μg/ml, respectively. As a control a series of wells was similarly treated with LAL reagent water without the addition of LPS or Lipid A. Subsequently, the solutions were decanted and the wells were rinsed four times with Dulbeccos phosphate-buffered saline (D-PBS; Lifetechnologies) without magnesium or calcium salts. […] In addition, the lyophilized samples from the prior CLP1b incubation and the following sequence of washing steps were resuspended in 50 μl SDS-Sample buffer and the compositions of the collected samples from the adsorption assay were analyzed by SDS-PAGE in 15% (w/v) polyacrylamide gels and silver staining according to the method described by Heukeshoven [Heukeshoven, J., 1986].

For another assay, the system named is human PBL. Nature of the assay: TNFα production by human PBL with LPS and Hb. The assay is classed as cell-based. Conditions: LPS 200 ng/ml. Here is the method:
PBL were obtained by Ficoll-hypaque purification from volunteers. Cells were incubated in triplicate in 2 ml medium (with 10% commercial human AB serum and 200 ng/ml LPS) at a concentration of 1×10^6/ml. Medium contained in addition adult or fetal (sheep) hemoglobin at the various concentrations shown. Supernatants were harvested 24 hrs later to assay in triplicate for TNFα by ELISA. […] Control cultures (no LPS, LPS only, or fetal/adult Hb only) produced levels <50 ng/ml, <100 ng/ml or <65 ng/ml respectively.
PBL were obtained by Ficoll-hypaque purification from volunteers. Cells were incubated in 2 ml medium (with 10% commercial human AB serum). Cells were incubated in the presence/absence of 500 ng/ml adult or fetal sheep hemoglobin α- or γ-chain. Control cells were incubated in the absence of hemoglobin protein (far left of Figure). In addition, each group was further subdivided into triplicates which received no additional materials (open bars), or 200 ng/ml LPS (closed bars). Supernatants were harvested 24 hrs later to assay (in triplicate) for TNFα by ELISA. Data in panels A and B are independent studies using different volunteer donors (mean ±SD). […]

For assay [3], the system named is LPS aggregates (Re-LPS from E. coli F515, S-form LPS from Salmonella enterica sv. Minnesota 188233). The assay can be described thus: LPS disaggregation, automated native PAGE assay. Conditions: LPS 0.275 μg/μl, hemoglobin 0.375 μg/μl, 37° C., 30 min. The source says: Concerning the molecular mechanism of the enhancement of LPS bioactivities by adult mammalian hemoglobin (HbA) preparations, a profound dispersion of the physiologically predominating large LPS aggregates (MW≧10^6 Da) by HbA has been described [Roth, R. J., 1994; Kaca, W., 1994; Roth R. J., 1999]. For analysis of potential analogous effects of highly purified fetal ovine hemoglobin (s-HbF) an automated native PAGE assay was established employing the PhastSystem™ apparatus (Amersham Pharmacia Biotech). Briefly, Re-LPS purified from E. coli F515 or S-form LPS from Salmonella enterica sv. Minnesota 188233 at a final concentration of 0.275 μg/μl was incubated in the presence or absence of the analyzed hemoglobin preparations (0.375 μg/μl) at 37° C. for 30 min. […] The denatured samples were finally analyzed by SDS-PAGE in PhastGel™ Homogeneous-20 gels equipped with PhastGel™ SDS buffer strips (Amersham Pharmacia Biotech) according to the standard protocol of the manufacturer and subsequent silver staining. In comparison to ovine HbF preparations of human HbA (SIGMA-Aldrich), adult ovine hemoglobin (s-HbA) and heme-free fetal ovine hemoglobin (s-HbF/hf) were analysed for LPS disaggregation activities in the native Phast™ PAGE assay.

The nature of assay [4]: Bioenhancing effect on LPS (data not shown).
For a further assay, the system named is adherent spleen cells. The assay can be described thus: Co-stimulation of adherent spleen cells (macrophages) with LPS/CLP2p and recombinant cytokines, cytokine ELISA. The assay is classed as cell-based, DBA/2 mice. Conditions: 18 h; LPS 1 μg/ml, CLP2p 0.3 μg/ml, rIL-12/rIL-13 0.1 μg/ml, anti-IL-12 10 μg/ml. The procedure:
LPS, as well as many defined cytokines, including IL-1, IL-6, IL-10, IL-12, IL-13 and IFNγ, stimulate macrophages to produce other cytokines in vitro and in vivo. […] In addition, cells were treated with CLP2p, or with cytokines, in the presence of monoclonal antibodies to cytokines. Cytokine production was measured by ELISA (all reagents purchased by Pharmingen, San Diego, USA).
IL-12 is a primary physiological stimulus for cytokine production by macrophages during inflammation [Wang, J., 1999], and LPS may mediate its stimulatory effects by inducing IL-12 production. Similarly, IL-13 may be a physiologic counter-regulator of stimulation by IL-12 [Machado, F., 1998]. […] In some cultures a monoclonal antibody to IL-12 was included. (Recombinant cytokines were obtained according to conventional protocols.) Data pooled from 3 such studies are shown in Table 1.
In general terms: ELISA stands for enzyme-linked immunosorbent assay.

Chain of UniProt P10810 (P10810 16-336): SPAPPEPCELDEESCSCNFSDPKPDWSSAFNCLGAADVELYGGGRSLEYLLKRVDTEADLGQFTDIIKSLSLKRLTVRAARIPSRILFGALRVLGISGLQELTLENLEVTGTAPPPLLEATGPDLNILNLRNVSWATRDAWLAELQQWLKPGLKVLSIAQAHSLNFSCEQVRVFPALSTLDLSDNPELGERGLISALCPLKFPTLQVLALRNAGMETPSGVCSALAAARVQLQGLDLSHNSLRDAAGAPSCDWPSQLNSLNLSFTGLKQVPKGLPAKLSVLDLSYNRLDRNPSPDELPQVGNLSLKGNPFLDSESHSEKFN

In assay [1], “commercial anti-CD14 monoclonal antibody (UCHM-1, Sigma)” yielded an Inhibition % of TNF-α production by spleen adherent cells; stimulus CLP2p (0.3 µg/ml), anti-CD14 2.5 µg/ml of 46%; an Inhibition % of TNF-α production by spleen adherent cells; stimulus CLP2p (0.3 µg/ml), anti-CD14 10 µg/ml of 80%; an Inhibition % of TNF-α production by spleen adherent cells; stimulus LPS (1 µg/ml), anti-CD14 2.5 µg/ml of 58%; an Inhibition % of TNF-α production by spleen adherent cells; stimulus LPS (1 µg/ml), anti-CD14 10 µg/ml of 81%.
For “fetal Hb: purified fetal sheep hemoglobin, α and γ chains (α2γ2)”, the “synergy with LPS in the production of TNFα or IL-6” value in the assay on mouse spleen cells is “clear evidence for a synergy”. Moreover, in assay [2], the “LPS/Lipid A interaction in CLP1b” value is on record as “major LPS/Lipid A-interacting component”. Also, in the assay on human PBL, the “synergy with LPS for the production of TNFα” value was “striking synergy”. Besides, the LPS disaggregation activity entry in assay [3] is reported as “stronger LPS disaggregation activities”.
myoglobin: in assay [4], the bioenhancing effect result was “not observed”.
For “rIL-13: recombinant cytokine IL-13 [reference compound]”, in the assay on adherent spleen cells, the “IL-1 level in culture supernatant” value was 15 ng/mL, the “IL-6 level in culture supernatant” value came out at 1040 pg/mL and the “TNFα level in culture supernatant” value amounted to 40 ng/mL.

B1: rIL-12: recombinant cytokine IL-12 (protein, UniProt P29459 23-219; P29460 23-328, looked up)
Interleukin-12 subunit alpha: RNLPVATPDPGMFPCLHHSQNLLRAVSNMLQKARQTLEFYPCTSEEIDHEDITKDKTSTVEACLPLELTKNESCLNSRETSFITNGSCLASRKTSFMMALCLSSIYEDLKMYQVEFKTMNAKLLMDPKRQIFLDQNMLAVIDELMQALNFNSETVPQKSSLEEPDFYKTKIKLCILLHAFRIRAVTIDRVMSYLNAS
Interleukin-12 subunit beta: IWELKKDVYVVELDWYPDAPGEMVVLTCDTPEEDGITWTLDQSSEVLGSGKTLTIQVKEFGDAGQYTCHKGGEVLSHSLLLLHKKEDGIWSTDILKDQKEPKNKTFLRCEAKNYSGRFTCWWLTTISTDLTFSVKSSRGSSDPQGVTCGAATLSAERVRGDNKEYEYSVECQEDSACPAAEESLPIEVMVDAVHKLKYENYTSSFFIRDIIKPDPPKNLQLKPLKNSRQVEVSWEYPDTWSTPHSYFSLTFCVQVQGKSKREKKDRVFTDKTSATVICRKNASISVRAQDRYYSSSWSEWASVPCS
As for B1, in the assay with adherent spleen cells, the “IL-1 level in culture supernatant” value is 235 ng/mL, the “IL-6 level in culture supernatant” value turned out to be 359 pg/mL and the “TNFα level in culture supernatant” value is 149 ng/mL.

These data come from US7968103B2, “Compositions comprising fetal hemoglobin and bacterial endotoxin and optionally additional fetal liver components” (priority 2003, dated 2011).
